In patent US10457703B2, “Bile acid derivatives as FXR/TGR5 agonists and methods of use thereof” (ENANTA PHARMACEUTICALS, INC., priority 2015, dated 2019) one finds EC50 and Emax data, which are given here for 13 compounds.

pEC50: −log10 of the molar value.

This experiment deals with human FXR (NR1H4) (Homo sapiens (Human), UniProt Q96RI1). Put plainly: Human FXR (NR1H4) Assay (Gal4 promoter driven luciferase reporter, Indigo Bioscience kit).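 For Efficacy (%): 100% equals the efficacy of CDCA; efficacy normalized to CDCA set as 100%.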 Format: cell-based. The settings on record: for pEC50: Human FXR (NR1H4) Assay, potency ranges; for Emax: read-out: Efficacy (%). An outline of the steps: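 CHO reporter cells expressing human FXR with an FXR-responsive luciferase reporter, treated with compound doses at 0.2% DMSO. Incubation lasted 22 h at 37 °C before luciferase detection reagent was added. Luminescence was then read.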
Chain of human FXR (NR1H4) (Q96RI1 whole entry, the tested form may be a part): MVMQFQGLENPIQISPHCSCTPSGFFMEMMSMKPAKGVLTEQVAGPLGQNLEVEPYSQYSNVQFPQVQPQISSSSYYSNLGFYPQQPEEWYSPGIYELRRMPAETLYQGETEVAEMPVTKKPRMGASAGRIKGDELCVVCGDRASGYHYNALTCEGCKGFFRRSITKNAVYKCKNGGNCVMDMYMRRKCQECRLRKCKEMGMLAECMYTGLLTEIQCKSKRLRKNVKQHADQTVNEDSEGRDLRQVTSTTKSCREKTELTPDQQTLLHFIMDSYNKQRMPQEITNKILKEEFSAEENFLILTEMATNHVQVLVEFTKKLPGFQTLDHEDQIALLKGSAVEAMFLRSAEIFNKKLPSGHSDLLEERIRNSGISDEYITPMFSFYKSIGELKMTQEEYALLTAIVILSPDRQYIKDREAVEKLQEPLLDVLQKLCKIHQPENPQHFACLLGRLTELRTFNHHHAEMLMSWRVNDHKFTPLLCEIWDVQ

In the case of `CC[C@H]1[C@@H](O)[C@@H]2[C@H](CC[C@]3(C)[C@@H]([C@H](C)CCOC(=O)N4CC(=O)NS4(=O)=O)CC[C@@H]23)[C@@]2(C)CC[C@@H](O)C[C@@H]12` [Example 110], the pEC50 (commonly the negative decadic logarithm of the EC50, by convention in mol/L) was 5.00 to 6.00 and the Emax is 28%.

With `CC[C@H]1[C@@H](O)[C@@H]2[C@H](CC[C@]3(C)[C@@H]([C@H](C)CCOC(=O)NS(=O)(=O)c4ccccc4F)CC[C@@H]23)[C@@]2(C)CC[C@@H](O)C[C@@H]12` [Example 71], the pEC50 is 6.00 to 7.00 and the Emax is 317%.

`CC[C@H]1[C@@H](O)[C@@H]2[C@H](CC[C@]3(C)[C@@H]([C@H](C)CCOC(=O)NS(=O)(=O)c4ccc(Cl)cc4)CC[C@@H]23)[C@@]2(C)CC[C@@H](O)C[C@@H]12` [Example 61]: the pEC50 is over 7.00 and the Emax is 270%.

Consider `CC[C@H]1[C@@H](O)[C@@H]2[C@H](CC[C@]3(C)[C@@H]([C@H](C)CCOC(=O)NS(=O)(=O)C(C)C)CC[C@@H]23)[C@@]2(C)CC[C@@H](O)C[C@@H]12` [Example 75], for which the negative-log EC50 (pEC50) was over 7.00 and the Emax turned out to be 386%.

`CC[C@H]1[C@@H](O)[C@@H]2[C@H](CC[C@]3(C)[C@@H]([C@H](C)COC(=O)NS(=O)(=O)c4ccc(OC(C)(C)C)cc4)CC[C@@H]23)[C@@]2(C)CC[C@@H](O)C[C@@H]12` [Example 30]: the negative logarithm of the EC50 (pEC50) is over 7.00 and the Emax was found to be 261%.

For the compound `CC[C@H]1[C@@H](O)[C@@H]2[C@H](CC[C@]3(C)[C@@H]([C@H](C)CCOC(=O)NS(=O)(=O)C(C)(C)C)CC[C@@H]23)[C@@]2(C)CC[C@@H](O)C[C@@H]12` [Example 48], the pEC50 was over 7.00 and the Emax turned out to be 282%.

For `CC[C@H]1[C@@H](O)[C@@H]2[C@H](CC[C@]3(C)[C@@H]([C@H](C)CCOC(=O)NCCCC(=O)OC)CC[C@@H]23)[C@@]2(C)CC[C@@H](O)C[C@@H]12` [Example 187], the pEC50 was 6.00 to 7.00 and the Emax came to 421%.

On to `CC[C@H]1[C@@H](O)[C@@H]2[C@H](CC[C@]3(C)[C@@H]([C@H](C)COC(=O)NS(=O)(=O)c4cccc(O)c4)CC[C@@H]23)[C@@]2(C)CC[C@@H](O)C[C@@H]12` [Example 38], for which the negative-log EC50 (pEC50) was 6.00 to 7.00 and the Emax worked out at 203%.

As for `CC[C@H]1[C@@H](O)[C@@H]2[C@H](CC[C@]3(C)[C@@H]([C@H](C)CCOC(=O)NS(=O)(=O)N4CCOCC4)CC[C@@H]23)[C@@]2(C)CC[C@@H](O)C[C@@H]12` [Example 59], the pEC50 was over 7.00 and the Emax stood at 428%.

Turning to `CC[C@H]1[C@@H](O)[C@@H]2[C@H](CC[C@]3(C)[C@@H]([C@H](C)CCOC(=O)NS(=O)(=O)c4cccc(C(C)(C)C)c4)CC[C@@H]23)[C@@]2(C)CC[C@@H](O)C[C@@H]12` [Example 54], the pEC50 is 6.00 to 7.00 and the Emax came out at 290%.

As to `CCC(CC)S(=O)(=O)NC(=O)OCC[C@@H](C)[C@H]1CC[C@H]2[C@@H]3[C@H](O)[C@H](CC)[C@@H]4C[C@H](O)CC[C@]4(C)[C@H]3CC[C@]12C` [Example 96], the negative logarithm of the EC50 (pEC50) is over 7.00 and the Emax stood at 388%.

Turning to `CC[C@H]1[C@@H](O)[C@@H]2[C@H](CC[C@]3(C)[C@@H]([C@H](C)CCOC(=O)N4CCC(CO)(CO)CC4)CC[C@@H]23)[C@@]2(C)CC[C@@H](O)C[C@@H]12` [Example 218], the negative-log EC50 (pEC50) was over 7.00 and the Emax was determined as 356%.

As for `CC[C@H]1[C@@H](O)[C@@H]2[C@H](CC[C@]3(C)[C@@H]([C@H](C)CCCOC(=O)NC4CCCCC4)CC[C@@H]23)[C@@]2(C)CC[C@@H](O)C[C@@H]12` [Example 126], the pEC50 is 5.00 to 6.00 and the Emax is 187%.
